Assays:
C. albicans (SC5314) = test: Infection of TR146-Nluc epithelial cells with C. albicans in the presence of antifungals; damage read out by Nluc and LDH in supernatant; assay type: cell-based; conditions: sub-MIC levels, supernatant 24 hours after infection; for protection of TR146-Nluc from C. albicans-induced cell damage, LDH assay: LDH readout, protective effect not reliably detected (FIG. 3D); for protection of TR146-Nluc from C. albicans-induced cell damage, Nluc assay: Nluc readout (FIG. 3D)
Protocol: (§1) In order to measure damage from cells seeded in 96-well plates, plates were centrifuged at 250×g for 10 minutes. Where indicated, 100 μl of supernatant was collected and stored at −20° C. for assaying on another day in the same week. For the luciferase assays, 5 μl supernatant was diluted with 95 μl PBS in white flat-opaque-bottomed 96-well plates (ThermoFisher). Then, 100 μl of 10 μM coelenterazine (in PBS) was added and luciferase activity measured immediately using a Tecan infinite M200 luminescence reader, with integration time of 100 ms and OD2 compensation. The OD2 neutral density filter attenuates high level light by a factor of 100.
The LDH cytotoxicity assay was performed according to instructions in the Roche Cytotoxicity Detection Kit with minor modifications. Briefly, 10 μl supernatant was diluted with 90 μl PBS in transparent-flat-bottomed 96-well plates, 100 μl of kit reagent mixture was added to each well, the plates were incubated in the dark for 15-20 minutes at room temperatures, and absorbance was measured with a Tecan absorbance reader at 492 nm (reference at 600 nm).
Infection of epithelial cells with Candida spp. strains Overnight cultures of Candida spp. strains in YPD, 1% peptone were diluted, washed in PBS, and counted using Neubauer counting chambers. The medium of confluent epithelial cells was replaced with a suspension of […] Candida spp. (MOI 1) in the appropriate cell culture medium (without FBS). The cells were incubated at 37° C. and 5% CO2 for 24 hours.
Stock solutions of the antifungal drugs, fluconazole (10 mg/ml) and voriconazole (10 mg/ml) were prepared in DMSO and stored at −20° C. A two-fold dilution series was prepared in DMEM/F12 cell culture medium for fluconazole (8-0.25 μg/ml) and voriconazole ([…]). Diluted drugs were transferred to TR146-Nluc cells seeded 48 hours prior, and infected with C. albicans (SC5314), as described above. Supernatant was collected 24 hours after infection to measure damage by LDH and Nluc.

Nluc = molecular target: T1, Nluc (Oplophorus gracilirostris, UniProt Q9GV45, A31E/A60N/A81I/F95D/I117V/K70R/L54V/L99Q/M102K/N193R/P142E/Q151K/Q38R/Q45L/V71I/Y165I); test: Effect of pyruvate on Nluc enzyme activity in TR146-Nluc cell lysate; assay type: biochemical; conditions: 16-0.5 mM dilution series (FIG. 4C)
T1 construct: expressed in transfected cells; host or cells: TR146 human oral epithelial cells, lentivirally transduced with pSEW-NanoLuc-IRES-PuroR (Nluc gene amplified from Addgene plasmid #67178), lysed in 1% Triton X-100 in PBS
T1 sequence (Q9GV45 other isoform, or with tags, fused parts or gaps with the stated changes): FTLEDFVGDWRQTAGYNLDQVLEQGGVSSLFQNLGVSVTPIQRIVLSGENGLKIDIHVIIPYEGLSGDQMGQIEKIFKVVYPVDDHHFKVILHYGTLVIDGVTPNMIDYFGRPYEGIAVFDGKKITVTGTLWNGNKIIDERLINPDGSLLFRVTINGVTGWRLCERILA
Protocol: as §1
TR14-Nluc cells were detached with Accutase and resuspended in 5 ml PBS. Cells were counted and ≈1×10^4 cells/ml were resuspended in lysing buffer (1% Triton X-100 in PBS, pH 7.4).
To examine the effects of pyruvate on activity of LDH, a 2-fold dilution series for sodium pyruvate and lactate (16-0.5 mM) was prepared in lysis buffer, the lysate was incubated for 10 min at 37° C. and centrifuged at 10,000×g. The supernatant was collected to test LDH and luciferase enzyme activity.

Row | Compound | protection of TR146-Nluc from C. albicans-induced cell damage, LDH assay (C. albicans (SC5314)) | protection of TR146-Nluc from C. albicans-induced cell damage, Nluc assay (C. albicans (SC5314)) | effect on Nluc enzyme activity (Nluc)
1 | C[C@@H](c1ncncc1F)[C@](O)(Cn1cncn1)c1ccc(F)cc1F [voriconazole] | not with LDH | protective effect | –
2 | CC(=O)C(=O)[O-].[Na+] [pyruvate, sodium pyruvate] | – | – | no discernible effect
3 | OC(Cn1cncn1)(Cn1cncn1)c1ccc(F)cc1F [fluconazole] | not with LDH | protective effect | –

Source: US20250044279A1, “CYTOTOXICITY ASSAY FOR DETECTING CELLULAR DAMAGE” (priority 2023, published 2025)
